Series [1] relates to Fathead Minnow. Put plainly: Toxicity, LC50 Fathead Minnow. Conditions: in vivo. The method, then:
Product A was evaluated for toxicity using various tests.

Series [2] can be described thus: Compatibility test of scale inhibitors with Product A in synthetic brine. Also noted: key: C—Clear; P—Precipitate. The conditions noted are these: 10% scale inhibitor solution mixed with 10% Product A solution in synthetic brine. Type of series: physicochemical. The source says:
Individual solutions (Solutions 1B through 1G) of 10% Product B, C, D, E, F and G, respectively, in a synthetic brine (see the table below showing the synthetic brine composition) were mixed with a 10% solution (Solution 2) of Product A in the synthetic brine. The two sets of solutions were mixed with Solution 2 (i. e., each of Solutions 1B through 1G were mixed with Solution 2) at ratios of 10:90, 30:70, 50:50, 70:30 and 90:10 to indicate that no precipitate would form at any concentration in the mixing concentration range from 10:90 to 90:10. These compatibility screening tests indicate that it is unlikely for any incompatibility to be experienced during deployment and flow back of a squeeze treatment. Any incompatibilities under ambient conditions were observed visually from solution clarity and/or precipitate. The samples were then heated to the test temperature (80° C.) and any further incompatibilities after 2 and 24 hours recorded.

Series [3] in a line: Coreflood. Conditions: flow back versus pre-treatment permeability. The method, then: Two corefloods were carried out simultaneously on two Bandera outcrop cores (1.5″ diameter by 3″ length), using a Scaled Solutions dual coreflood apparatus. The composition of these cores is set out in the table below:
Both cores were wrapped with PTFE tape and cased in heat shrink tubing prior to insertion into a Viton sleeve and mounted in a Hassler type core holder with a confining pressure of 1200 psi. Both cores were then flushed with synthetic brine at 1 mL/min for at least 2 hours and until the differential pressure was stable. Brine was flushed at 0.5 mL/min overnight.
Both cores were saturated with synthetic brine under ambient conditions in the forward direction at 1 mL/min for 10 minutes, 2 mL/min for 10 minutes, 3 mL/min for 10 minutes, and 4 mL/min for 2 hours and until the differential pressure was stable. After a stable differential pressure was achieved, the permeability to brine was measured in the forward flow by flooding at 4, 3, 2, 1 mL/min at room temperature.
Brine was then injected into both cores in the forward direction at 1 mL/min until the oven reached a temperature of 80° C. […] Following plug saturation, the permeability of each core to synthetic brine was measured in the forward flow by flooding at 4, 3, 2, and 1 mL/min at 80° C. […]
Both cores were injected with synthetic brine at 2 mL/min with effluent samples being collected. The samples were analyzed by ICP. […]

Setting [4] is: ratio printed 10:90 (fifth column).
[5] abbreviates: ratio printed 30:70 (fourth column).

For the compound `C[N+](C)(C)CC(O)C[N+](C)(C)C.[Cl-].[Cl-]` [Product A, 1,3-propandiaminium, 2-hydroxy-N,N,N,N′,N′,N′-hexamethyl-, dichloride], the “LC50 Fathead Minnow” value in series [1] was >1,000 mg/L.
Take `O=P(O)(O)CN(CCCCCCN(CP(=O)(O)O)CP(=O)(O)O)CCCCCCN(CP(=O)(O)O)CP(=O)(O)O` [Product B, BHMT phosphonate]: the “Clarity of Mixed Solutions” value in series [2] (ratio 10:90 (first column)), in series [2] (ratio 30:70 (second column)), in series [2] (ratio 50:50), in series [2] (setting [4]) and in series [2] (setting [5]) was “C” each time. The “Permeability Recovery” value in series [3] and in series [3] (listed as Brine/10% Product B) was 75% in each case.
For DETA phosphonate [Product C], the “Clarity of Mixed Solutions” value in series [2] (ratio 10:90 (first column)), in series [2] (ratio 30:70 (second column)), in series [2] (ratio 50:50), in series [2] (setting [4]) and in series [2] (setting [5]) was “C” throughout.

Source of the values: patent US9803450B2, “Use of oligo-quaternary compositions to increase scale inhibitor lifetime in a subterranean formation” (Ecolab USA Inc., priority 2012, dated 2017).
